Systemic plasma level data for two compounds are collected here from patent US20250345169A1, “DEVICES FOR PROVIDING TISSUE SUPPORT DURING BREAST RECONSTRUCTION, AND SYSTEMS AND METHODS THEREOF” (Melodi Health, Inc., priority 2023, published 2025).

The conditions of the data set: in vivo.

As to `CO[C@H]1/C=C/O[C@@]2(C)Oc3c(C)c(O)c4c(O)c(c(/C=N/N5CCN(C)CC5)c(O)c4c3C2=O)NC(=O)/C(C)=C\C=C\[C@H](C)[C@H](O)[C@@H](C)[C@@H](O)[C@@H](C)[C@H](OC(C)=O)[C@@H]1C` [Rifampin], the systemic plasma level result is “below detection limits”. As for `CN(C)c1ccc(O)c2c1C[C@H]1C[C@H]3[C@H](N(C)C)C(O)=C(C(N)=O)C(=O)[C@@]3(O)C(O)=C1C2=O` [Minocycline], the systemic plasma level entry is recorded as “below detection limits”.
